What was measured:
[1] = system: E. coli strain (ATCC 98082 pZS_thrO, pZAlac_ilvA_LeuA, pZE12LeuA*BCDKA6_KIVD_wt); experiment: Alcohol toxicity: growth (OD600) of the alcohol production strain over 7 hours; assay type: cell-based; conditions: 7-hour incubation
Protocol: Alcohol tolerance of the in vivo alcohol production strain was evaluated by supplementing the fermentation media with specified quantities of long chain alcohols, and measuring growth over 7 hours. Both the E. coli strain (ATCC 98082 pZS_thrO, pZAlac_ilvA_LeuA, pZE12LeuA*BCDKA6_KIVD_wt) and fermentation media (1×M9 metals+1× trace metal mix+0.5% yeast extract+2% glucose+antibiotics) and conditions are the same as described above (Fermentation procedure and analysis). Cells were grown in media without IPTG-induction to a starting OD600 ˜0.02 and then supplemented with either 1-petanol, 1-hexanol, 1-heptanol, or 1-octanol at specified concentrations of 10 mg/L, 50 mg/L, 250 mg/L, 500 mg/L, or 1000 mg/L. OD600 readings were taken hourly up to 7 hours.

[2] = system: Streptomyces sp. C GEO175 variant L376T_T240S, SEQ ID NO:19; experiment: Steady-state kinetics of 2-ketoacid decarboxylase (ADH/NADH coupled); assay type: biochemical; conditions: relative to GEO 175, same conditions
Protocol: FIG. 6: Depicts results of kinetic characterization of GEO 175 and GEO 175 L376T_T240S. Kinetic constants were measured as described herein. The substrate 2-ketooctanoate carbon chain numbering referred to in the text is numbered in white. According to the molecular model of GEO 175, the double mutation L376T_T240S is predicted to recede the pocket by 1.4 Å and remove interactions between the binding pocket and carbon 8 of the ketoacid alkyl chain. […]
For the native KIVD and KIVD_VLV mutant, 2 ml overnight cultures of XL1B cells were transformed with pQE9 containing N-terminal his-tagged KIVD enzymes and grown in Terrific Broth (BP biomedical, Cat#3046-042) with 50 μg/mL of carbenicillin. […] Protein concentrations were determined using a Synergy H1 spectrophotometer (Biotek) by measuring absorbance at 280 nm using their calculated extinction coefficients with ExPASy ProtParam Tool.^33 All other buffers and salts were purchased from Fisher Scientific unless otherwise specified.
The kcat and KM values of selective KIVD mutants were measured for the substrates: C3, C5, isoC5, and C8. […] Activity was measured at 0.005 mM to 10 mM substrates. […]

[3] = target: GEO179, 2-ketoacid decarboxylase, SEQ ID NO:14 (Klebsiella variicola, UniProt A0ACD7F8P2, H281L/S236A/T380V); experiment: as above; assay type: biochemical; conditions: pH 7.5, 21° C.
Text: (§1) FIG. 20: Depicts results of a structural alignment of GEOs and KIVD (GEO175=SEQ ID NO:2, GEO243=SEQ ID NO:5, GEO 250=SEQ ID NO:6, GEO 242=SEQ ID NO:7, GEO 245=SEQ ID NO:8, GEO 251=SEQ ID NO:9, GEO 247=SEQ ID NO:10, GEO 244=SEQ ID NO:11, GEO 246=SEQ ID NO:12, GEO 248=SEQ ID NO:13, GEO 179=SEQ ID NO:14, GEO 240=SEQ ID NO:15, GEO 195=SEQ ID NO:16, GEO 241=SEQ ID NO:17, GEO 249=SEQ ID NO:4, KIVD_VLV=SEQ ID NO:3). Active site residues are denoted with a black box under the residue letter.
(§2) For the native KIVD and KIVD_VLV mutant, 2 ml overnight cultures of XL1B cells were transformed with pQE9 containing N-terminal his-tagged KIVD enzymes and grown in Terrific Broth (BP biomedical, Cat#3046-042) with 50 μg/mL of carbenicillin. (Fisher scientific, Cat# BP2648-5) For the GEOs, 2 ml overnight cultures of BLR cells were transformed with pet29b+ plasmid containing N-terminal his-tagged GEOs, and grown in Terrific Broth with 50 μg/mL of kanamycin. (Fisher scientific, Cat# BP906-5) These cultures were diluted 1:1000 in 500 mL of Terrific Broth with 1 mM MgSO4, 1% glucose, and 50ug/mL of corresponding antibiotics, then grown at 37° C. for 24 hours. Cultures were pelleted down at 4700 rpm for 10 mins and resuspended in auto-induction media (LB broth, 1 mM MgSO4, 0.1 mM TPP, 1×NPS, and 1×5052) for induction at 18° C. for 34 hours. […] Protein concentrations were determined using a Synergy H1 spectrophotometer (Biotek) by measuring absorbance at 280 nm using their calculated extinction coefficients with ExPASy ProtParam Tool.^33 All other buffers and salts were purchased from Fisher Scientific unless otherwise specified.
(§3) The kcat and KM values of selective KIVD mutants were measured for the substrates: C3, C5, isoC5, and C8. […] Activity was measured at 0.005 mM to 10 mM substrates. […] Absorbance readings were taken every 1-minute at OD340 at 21° C. for 60 minutes using the Synergy H1. Kinetic parameters (kcat and KM) were determined by fitting initial velocity versus substrate concentration data to the Michaelis-Menten equation.

[4] = system: GEO195, 2-ketoacid decarboxylase, SEQ ID NO:16; experiment: as above; assay type: biochemical; conditions: pH 7.5, 21° C.
Text: as §1, §2, §3

[5] = 250 mg l^−1 alcohol supplemented, OD 1.9 without toxicity
[6] = 500 mg l^−1 alcohol supplemented
[7] = 1000 mg l^−1 alcohol supplemented

Chain of GEO179, 2-ketoacid decarboxylase, SEQ ID NO:14 (A0ACD7F8P2 entry or part of it H281L/S236A/T380V): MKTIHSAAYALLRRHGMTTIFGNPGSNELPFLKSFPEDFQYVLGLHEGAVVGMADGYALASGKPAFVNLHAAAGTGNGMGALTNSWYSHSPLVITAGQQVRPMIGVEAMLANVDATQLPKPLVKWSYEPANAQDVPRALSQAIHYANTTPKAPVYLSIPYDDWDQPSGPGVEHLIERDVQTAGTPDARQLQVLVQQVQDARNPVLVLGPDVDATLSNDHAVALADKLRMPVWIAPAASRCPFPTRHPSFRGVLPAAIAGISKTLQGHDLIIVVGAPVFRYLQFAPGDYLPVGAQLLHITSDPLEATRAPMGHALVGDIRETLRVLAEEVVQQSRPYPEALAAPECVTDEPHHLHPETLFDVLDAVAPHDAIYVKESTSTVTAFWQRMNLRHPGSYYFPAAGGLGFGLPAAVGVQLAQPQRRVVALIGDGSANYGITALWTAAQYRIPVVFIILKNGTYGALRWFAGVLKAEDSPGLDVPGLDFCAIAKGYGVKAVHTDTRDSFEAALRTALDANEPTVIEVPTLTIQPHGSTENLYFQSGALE

| Structure (SMILES) | final OD of E. coli cultures [1, 5] | final OD of E. coli cultures [1, 6] | final OD of E. coli cultures [1, 7] | decrease in catalytic efficiency relative to GEO 175 [2] | also measured |
| --- | --- | --- | --- | --- | --- |
| CCCCCCO [hexanol, 1-hexanol] | approximately 1.6 | 1.0 | 0.2 |  |  |
| CCCCCO [pentanol, 1-pentanol] |  |  | 1.5 |  |  |
| CCCCCCCO [heptanol, 1-heptanol] | approximately 1.6 | 0.1 | no significant growth |  |  |
| CCCCCCCCO [C8 alcohol, 1-octanol] | ~1.0 | No significant growth |  |  |  |
| CC(=O)C(=O)O [C3] |  |  |  | less than 2 fold |  |
| CC(C)C(=O)C(=O)O [iso C5, 2-ketoisovaleric acid] |  |  |  | less than 2 fold | kcat [3]: 0.39 ± 0.01 s⁻¹; Km [4]: 9.1 ± 0.3 mM; kcat [4]: 0.072 ± 0.001 s⁻¹ |

From US10829756B2, “Discovery of enzymes from the alpha-keto acid decarboxylase family” (Regents of the University of California, priority 2015, dated 2020)
